{"source": "patent US20250213649A1", "about": "“PEPTIDE HAVING ANTI-INFLAMMATORY AND ANTI-FIBROTIC ACTIVITIES AND USE THEREOF” (CAREGEN CO., LTD., priority 2022, published 2025)", "key": {"A549 cells": {"system": "A549 cells", "assay": "Inhibition of inflammatory cytokine gene expression induced by IL-1β, RT-PCR, A549 cells", "assay_type": "cell-based, human", "settings": "IL-1β 2 ng/ml, peptide 10, 50, 100, 500 μM, 3 hours, RT-PCR (FIG. 8)", "procedure": "A549 cells (human alveolar basal epithelial cells) were seeded at 3×10^5 cells/well in a 6-well plate and used in the experiment. After culturing for 1 day with a culture medium containing 10% FBS, the culture medium was replaced with a culture medium without containing FBS to induce starvation for 4 hours. A normal group without being treated with any substances, a group treated with IL-1β (2 ng/ml) (negative control group), groups treated with IL-1β (2 ng/ml) and the peptide of Production Example 1 (10, 50, 100, 500 μM), and a group treated with IL-1β (2 ng/ml) and 10 μM of Dexamethasone (DEX) (positive control group) were treated with the above-described active substances and drugs respectively, and then RNA was extracted after 3 hours to carry out RT-PCR. RNA was extracted from the A549 cells in each of the above groups using an easy-BLUE™ Total RNA extraction kit (Qiagen, Germany). The extracted RNA was converted into cDNA with RT-PCR premix (iNtRON Biotechnology, Seongnam, Korea). After preparing a reaction mixture with PCR premix (iNtRON Biotechnology, Seongnam, Korea) and primers for each gene, PCR was carried out using a PCR machine (Eppendorf, Germany). Next, the mRNA expression pattern was determined by agarose gel electrophoresis. The base sequences of the primers used in the experiment are as shown in [Table 2]."}, "BALB/c mice [1]": {"system": "BALB/c mice", "assay": "BLM-induced pulmonary fibrosis model, cell counts in bronchoalveolar lavage fluid", "assay_type": "in vivo", "settings": "BALB/c male mice, peptide 1 mg/mouse intranasal three times a week for 14 days, 21st day (FIG. 13b)", "procedure": "(§1) As shown in [Table 6] below, 8-week-old BALB/c male mice were divided into 4 groups of 5 mice each. On the 1st day, a Bleomycin solution ([…]/50 μl/mouse) was administered through the oropharynx to carry out one time of induction with BLM. Then, from the 7th day, the peptide of Production Example 1 (1 mg/mouse) was administered intranasally three times a week for 14 days, and Pirfeninone (2 mg/mouse) for a positive control group was administered orally three times a week for 14 days. On the 21st day of the induction with BLM, mice were sacrificed to obtain the bronchoalveolar lavage fluid and the lung tissue, which were used in the next analysis.\nThe mouse subjected to the animal experiment was anesthetized, and then the treatment area was disinfected with 70% ethanol. […] The separated cells were resuspended in 0.5 ml of PBS, subsequently diluted with trypan blue solution at a 1:1 ratio, and then the total number of cells was counted using a hematocytometer. […] After staining, cells were observed and counted through a microscope, and then the number of immune cells with respect to the total number of cells was calculated to show the results as a graph. […]"}, "MRC-5 cells": {"system": "MRC-5 cells", "assay": "Western blotting of LPS-induced inflammatory cytokine/signaling proteins, MRC-5 cells", "assay_type": "cell-based", "settings": "5 μg/ml LPS, peptide 10, 50, 100, 500 μM, 24 hours, Western blot (FIG. 3)", "procedure": "MRC-5 cells (lung fibroblast cells) were seeded at 2×10^5 cells/well in a 6-well plate and used in the experiment. After culturing for 1 day with a culture medium containing 10% FBS, the culture medium was replaced with a culture medium without containing FBS to induce starvation for 4 hours. Cells of a normal group without being treated with any substances, a group treated with 5 μg/ml of LPS (Sigma Aldrich) (negative control group), groups treated with 5 μg/ml of LPS and the peptide of Production Example 1 (10, 50, 100, 500 μM), and a group treated with 5 μg/ml of LPS and 10 μM of Dexamethasone (DEX) (positive control group) were treated with active substances and drugs respectively and then cultured for 24 hours. The cultured cells of each treatment group and control group were lysed by adding a lysis buffer, and then centrifugation was carried out at 4° C. at 12,000 rpm for 30 minutes to obtain proteins, which were subsequently quantified using a BCA Protein Assay kit (Sigma). The proteins were subjected to SDS-PAGE (sodium dodecyl sulfate-polyacrylamide gel electrophoresis) and then subjected to electrotransfer to a membrane. The membrane to which the proteins were attached was treated with 5% skim milk for blocking and then subjected to a reaction with a primary antibody overnight at 4° C. After washing with PBS-T, the membrane was subjected to a reaction with a secondary antibody at room temperature for 1 hour, washed again with PBS-T, and then visualized by a Western detection reagent (Elpis Biotech, Daejeon, Korea) using Gel Doc (Bio-Rad, Hercules, CA, USA). The antibodies used in the experiment are as follows. An Anti-IL-1β antibody (Cell signaling technology (CST), USA), an anti-IL-6 antibody (Santa Cruz Biotechnology, USA), an anti-pJNK antibody (Santa Cruz Biotechnology, USA), an anti-pERK antibody (Cell signaling technology (CST), USA), and an anti-β-Actin antibody (Santa Cruz Biotechnology, USA)."}, "BALB/c mice [2]": {"system": "BALB/c mice", "assay": "BLM-induced pulmonary fibrosis model, Masson's Trichrome staining of lung tissue collagen", "assay_type": "in vivo", "settings": "BALB/c male mice, peptide 1 mg/mouse intranasal three times a week for 14 days, 21st day, Trichrome staining (FIG. 15a, 15b)", "procedure": "as §1\nThe lung tissue obtained from mice subjected to the animal experiment was washed with PBS at room temperature and then fixed with 4% paraformaldehyde (PBS dilution). The fixed tissue was washed three times with PBS and dehydrated using an ethanol series having a concentration gradient of 70% to 100%. Next, the lung tissue sample was embedded and cut into slices having a thickness of 4 μm. The sliced specimen having a size of 4 μm, which was placed on a slide glass, was dewaxed and hydrated in an ethanol series having a concentration gradient. Staining was carried out for 10 minutes in each of Weigert's iron hematoxlin, a Biebrich scarlet-acid fuchsin solution, a Phosphomolybdic-phosphotungstic acid solution, and an aniline blue solution. […]"}}, "data": [{"sequence": "KYLLVHRPYYRR [peptide of Production Example 1]", "values": [{"measurement": "gene expression level of COX-2", "setting": "A549 cells", "result": "decreases in a concentration-dependent manner"}, {"measurement": "gene expression level of IL-1β", "setting": "A549 cells", "result": "decreases in a concentration-dependent manner"}, {"measurement": "gene expression level of IL-6", "setting": "A549 cells", "result": "decreases in a concentration-dependent manner"}, {"measurement": "gene expression level of IL-8", "setting": "A549 cells", "result": "decreases in a concentration-dependent manner"}, {"measurement": "gene expression level of TNF-α", "setting": "A549 cells", "result": "decreases in a concentration-dependent manner"}, {"measurement": "number of lymphocytes in bronchoalveolar lavage fluid", "setting": "BALB/c mice [1]", "result": "decreased the increased number of macrophages and the increased number of lymphocytes"}, {"measurement": "number of macrophages in bronchoalveolar lavage fluid", "setting": "BALB/c mice [1]", "result": "decreased the increased number of macrophages"}, {"measurement": "expression of IL-1β (protein)", "setting": "MRC-5 cells", "result": "decreased again the expression of IL-1β, IL-6, pJNK, and pERK in a concentration-dependent manner"}, {"measurement": "expression of IL-6 (protein)", "setting": "MRC-5 cells", "result": "decreased again the expression of IL-1β, IL-6, pJNK, and pERK in a concentration-dependent manner"}, {"measurement": "expression of pERK", "setting": "MRC-5 cells", "result": "decreased again the expression of IL-1β, IL-6, pJNK, and pERK in a concentration-dependent manner"}, {"measurement": "expression of pJNK", "setting": "MRC-5 cells", "result": "decreased again the expression of IL-1β, IL-6, pJNK, and pERK in a concentration-dependent manner"}, {"measurement": "degree of collagen deposition in the lung tissue", "setting": "BALB/c mice [2]", "result": "significantly reduced"}]}]}
